Assay results reported in US4091202A (Zaidan Hojin Biseibutsu Kagaku Kenkyu Kai, priority 1975, dated 1978).
≈ marks a conversion by molar mass, not a printed value. Structures can show the parent of a compound that is named as a salt. Where two headings read alike, the source gives them in different places.

Legend:
in vivo = details: mouse, iv
[1] = tested on: Escherichia coli K-12 R81; test: Minimum inhibitory concentration, serial dilution on nutrient agar; assay type: cell-based; details: for MIC: Escherichia coli, K12R81, 41 h; for M.I.C.: Escherichia coli K-12 R81, nutrient agar, 37° C, 41 hours
Procedure: (§1) Minimum inhibitory concentrations (mcg/ml) of the new compounds of the invention to various bacteria are estimated according to a standard serial dilution method using nutrient agar as the incubation medium, the incubation being made at 37° C for 41 hours.

[2] = tested on: Pseudomonas aeruginosa GN315; test: as above; assay type: cell-based
Procedure: as §1

Proteus vulgaris OX19 = test: as above; assay type: cell-based; details: 37° C, 41 hours
Procedure: as §1

[3] = tested on: Staphylococcus aureus FDA 209P; test: as above; assay type: cell-based; details: for MIC: FDA209P
Procedure: as §1

[4] = tested on: Escherichia coli K-12 ML-1410; test: as above; assay type: cell-based; details: 41 hours; for MIC: K12ML1410, 37° C; for M.I.C.: 37° C
Procedure: as §1

[5] = tested on: Pseudomonas aeruginosa No.12; test: as above; assay type: cell-based; details: 37° C, 41 hours
Procedure: as §1

Mycobacterium 607 = test: as above; assay type: cell-based; details: 37° C, 41 hours
Procedure: as §1

[6] = tested on: Escherichia coli K-12 MA290 R55; test: as above; assay type: cell-based; details: for MIC: Escherichia coli, K12MA290R55, 41 h; for M.I.C.: Escherichia coli K-12 MA290 R55, nutrient agar, 37° C, 41 hours
Procedure: as §1

[7] = tested on: Klebsiella pneumoniae PCI602; test: as above; assay type: cell-based; details: 37° C, 41 hours
Procedure: as §1

Escherichia coli K-12 = test: as above; assay type: cell-based
Procedure: as §1

[8] = tested on: Escherichia coli K-12 JR66/W677; test: as above; assay type: cell-based; details: for MIC: Escherichia coli, K12JR66/W677, 41 h; for M.I.C.: Escherichia coli K-12 JR66/W677, nutrient agar, 37° C, 41 hours
Procedure: as §1

[9] = tested on: Escherichia coli K-12 ML-1629; test: as above; assay type: cell-based; details: 41 hours; for MIC: K12ML1629, 37° C; for M.I.C.: 37° C
Procedure: as §1

[10] = tested on: Escherichia coli K-12 W677; test: as above; assay type: cell-based; details: 41 hours; for MIC: K12W677, 37° C; for M.I.C.: 37° C
Procedure: as §1

[11] = tested on: Pseudomonas aeruginosa A3; test: as above; assay type: cell-based; details: 37° C, 41 hours
Procedure: as §1

Bacillus subtilis PCI219 = test: as above; assay type: cell-based
Procedure: as §1

Shigella sonnei JS11746 = test: as above; assay type: cell-based; details: 37° C, 41 hours
Procedure: as §1

Bacillus subtilis = test: Antibacterial potency by cup-assay method; assay type: cell-based; details: for antibacterial potency: assuming DKB (free base) has 1000 units/mg
[12] = tested on: Staphylococcus aureus Smith S-424; test: Therapeutic treatment of bacterial infection in mice (ED50); assay type: in vivo; details: mice infected i.p. with S. aureus Smith S-424, 27.8 × 10^4 cells, single intramuscular injection immediately after inoculation; for ED50: Staphylococcus aureus, SMITHS424, im
Procedure: Said inoculum is corresponding to a 860-fold quantity of the LD50 dosage of S.aureus Smith S-424. A solution of the test compound in sterile, isotonic sodium chloride solution was intramuscularly injected into the infected mice once immediately after the inoculation of the bacterium at dosages of 0.1 mg, 0.05 mg, 0.025 mg, 0.0125 mg and 0.0063 mg of the test compound per mouse.

[13] = tested on: some kanamycin-resistant bacteria and Pseudomonas aeruginosa; details: British Patent No. 1,349,302; cited from earlier work
mice = details: for LD50 value: intravenous, mice, six per group, 20% w/v in isotonic sodium chloride solution
[14] = Pseudomonas aeruginosa GN315, nutrient agar, 37° C, 41 hours, read-out: M.I.C.
[15] = Staphylococcus aureus FDA 209P, nutrient agar, 37° C, 41 hours, read-out: M.I.C.
[16] = Bacillus subtilis PCI219, nutrient agar, 37° C, 41 hours, read-out: M.I.C.
[17] = Pseudomonas aeruginosa GN315, nutrient agar, 37° C, 41 hours
[18] = Staphylococcus aureus FDA 209P, nutrient agar, 37° C, 41 hours
[19] = Escherichia coli K-12, nutrient agar, 37° C, 41 hours
[20] = Bacillus subtilis PCI219, nutrient agar, 37° C, 41 hours

Compound | MIC (Proteus vulgaris OX19) | MIC [5] | MIC [6] | LD50 value (mice) | M.I.C. [1] | M.I.C. [2, 17] | M.I.C. (Proteus vulgaris OX19) | M.I.C. [3, 18] | M.I.C. [4] | M.I.C. [5] | M.I.C. (Mycobacterium 607) | M.I.C. [6] | M.I.C. [7] | M.I.C. (Escherichia coli K-12; [19]) | M.I.C. [8] | M.I.C. [9] | M.I.C. [10] | M.I.C. [11] | M.I.C. (Bacillus subtilis PCI219; [20]) | M.I.C. (Shigella sonnei JS11746) | also measured
O=S(=O)(O)C(NC[C@@H]1CC[C@@H](NC(c2ccccc2)S(=O)(=O)O)[C@@H](O[C@H]2[C@H](O)[C@@H](O[C@H]3O[C@H](CO)[C@@H](O)[C@H](NC(c4ccccc4)S(=O)(=O)O)[C@H]3O)[C@H](NC(c3ccccc3)S(=O)(=O)O)C[C@@H]2NC(c2ccccc2)S(=O)(=O)O)O1)c1ccccc1 (stereo partly drawn) [3',4'-Dideoxykanamycin B-penta-N-phenylmethanesulfonic acid sodium salt] | 0.39 µg/mL | 3.12 µg/mL | 100 µg/mL |  |  |  |  |  |  |  |  |  |  |  |  |  |  |  |  |  | LD50 (in vivo): > 5000 mg/kg; MIC [1]: 0.78 µg/mL; MIC [2, 14]: > 100 µg/mL; MIC [3, 15]: < 0.2 µg/mL; MIC [4]: 0.78 µg/mL; MIC (Mycobacterium 607): 0.78 µg/mL; MIC [7]: 0.39 µg/mL; MIC (Escherichia coli K-12; K12, Escherichia coli K-12, nutrient agar, 37° C, 41 hours, read-out: M.I.C.): 0.78 µg/mL; MIC [8]: 100 µg/mL; MIC [9]: 0.39 µg/mL; MIC [10]: 0.78 µg/mL; MIC [11]: 0.78 µg/mL; MIC (Bacillus subtilis PCI219; [16]): 0.2 µg/mL; MIC (Shigella sonnei JS11746): 1.56 µg/mL
NC[C@@H]1CC[C@@H](N)[C@@H](O[C@H]2[C@H](O)[C@@H](O[C@H]3O[C@H](CO)[C@@H](O)[C@H](N)[C@H]3O)[C@H](N)C[C@@H]2N)O1 [DKB, 3',4'-dideoxykanamycin B, reference compound] | < 0.2 µg/mL | 1.56 µg/mL (≈ 3.45 µM) | 50 µg/mL (≈ 111 µM) |  |  |  |  |  |  |  |  |  |  |  |  |  |  |  |  |  | antibacterial potency (assumed reference value) (Bacillus subtilis; assumed value of the standard): 1000 units/mg; ED50 [12]: 1.15 mg/kg; MIC [1]: 0.78 µg/mL (≈ 1.73 µM); MIC ([2]; Pseudomonas aeruginosa, GN315, 41 h): > 100 µg/mL; MIC [3, 15]: < 0.2 µg/mL; MIC [4]: 0.78 µg/mL (≈ 1.73 µM); MIC (Mycobacterium 607): 0.39 µg/mL (≈ 0.864 µM); MIC [7]: 0.39 µg/mL (≈ 0.864 µM); MIC (Escherichia coli K-12; Escherichia coli, K12, 41 h): 0.78 µg/mL (≈ 1.73 µM); MIC [8]: 50 µg/mL (≈ 111 µM); MIC [9]: 0.78 µg/mL (≈ 1.73 µM); MIC [10]: 0.78 µg/mL (≈ 1.73 µM); MIC [11]: 0.78 µg/mL (≈ 1.73 µM); MIC (Bacillus subtilis PCI219; [16]): < 0.2 µg/mL; MIC (Shigella sonnei JS11746): 0.78 µg/mL (≈ 1.73 µM); antibacterial activity [13]: high antibacterial activity against some kanamycin-resistant bacteria and Pseudomonas aeruginosa
3',4'-Dideoxykanamycin B-di-N-methanesulfonic acid sodium salt [DKB-di-N-methanesulfonic acid Na salt] |  |  |  | 4250 mg/kg | 0.78 µg/mL | > 100 µg/mL | < 0.2 µg/mL | < 0.2 µg/mL | 0.78 µg/mL | 1.56 µg/mL | 0.39 µg/mL | 50 µg/mL | 0.39 µg/mL | 0.78 µg/mL | 50 µg/mL | 0.78 µg/mL | 0.78 µg/mL | 0.78 µg/mL | < 0.2 µg/mL | 0.78 µg/mL | antibacterial potency (Bacillus subtilis): 590 units/mg; ED50 value [12]: 1.15 mg/kg; acute toxicity relative to that of 3',4'-dideoxykanamycin B itself (mice; intravenous injection into mice, from Table 2): about 1/40
O=S(=O)(O)CNC[C@@H]1CC[C@@H](NCS(=O)(=O)O)[C@@H](O[C@H]2[C@H](O)[C@@H](O[C@H]3O[C@H](CO)[C@@H](O)[C@H](NCS(=O)(=O)O)[C@H]3O)[C@H](NCS(=O)(=O)O)C[C@@H]2NCS(=O)(=O)O)O1 [DKB-penta-N-methanesulfonic acid Na salt, 3',4'-dideoxykanamycin B-penta-N-methanesulfonic acid sodium salt] | 0.39 µg/mL | 3.12 µg/mL | 100 µg/mL |  |  |  |  |  |  |  |  |  |  |  |  |  |  |  |  |  | LD50 (in vivo): > 5000 mg/kg; antibacterial potency (Bacillus subtilis): 400 units/mg; ED50 [12]: 1.9 mg/kg; MIC [2, 14]: > 100 µg/mL; MIC ([3]; Staphylococcus aureus, 41 h): < 0.2 µg/mL; MIC [7]: 0.39 µg/mL; MIC [8]: 100 µg/mL; MIC [9]: 0.39 µg/mL; MIC (Bacillus subtilis PCI219; Bacillus subtilis, PCI219, 41 h): 0.2 µg/mL; MIC (Shigella sonnei JS11746): 1.56 µg/mL
3',4'-Dideoxykanamycin B-tri-N-methanesulfonic acid sodium salt [DKB-tri-N-methanesulfonic acid Na salt] |  |  |  | > 5000 mg/kg | 0.78 µg/mL | > 100 µg/mL | 0.39 µg/mL | < 0.2 µg/mL | 0.78 µg/mL | 3.12 µg/mL | 0.78 µg/mL | 100 µg/mL | 0.39 µg/mL | 0.78 µg/mL | 100 µg/mL | 0.78 µg/mL | 0.78 µg/mL | 0.78 µg/mL | 0.2 µg/mL | 1.56 µg/mL | 
3',4'-Dideoxykanamycin B-di-N-methylmethane-sulfonic acid and its sodium salt |  |  |  | > 2000 mg/kg | 0.78 µg/mL | > 100 µg/mL | < 0.2 µg/mL | < 0.2 µg/mL | 0.78 µg/mL | 1.56 µg/mL | 0.39 µg/mL | 50 µg/mL | 0.39 µg/mL | 0.78 µg/mL | 50 µg/mL | 0.78 µg/mL | 0.78 µg/mL | 0.78 µg/mL | < 0.2 µg/mL | 0.78 µg/mL | 
3',4'-Dideoxykanamycin B-mono-N-methanesulfonic acid and its sodium salt [DKB-mono-N-methanesulfonic acid Na salt] |  |  |  | > 1500 mg/kg | 0.78 µg/mL | > 100 µg/mL | < 0.2 µg/mL | < 0.2 µg/mL | 0.78 µg/mL | 1.56 µg/mL | 0.39 µg/mL | 50 µg/mL | 0.39 µg/mL | 0.78 µg/mL | 50 µg/mL | 0.78 µg/mL | 0.78 µg/mL | 0.78 µg/mL | < 0.2 µg/mL | 0.78 µg/mL | 
